The record followed here is patent US20240033244A1, “COMPOSITIONS AND METHODS FOR INHIBITING YTHDF1” (SHANGHAI INSTITUTE OF MATERIA MEDICA, CHINESE ACADEMY OF …, priority 2020, published 2024).

For test [1], the system named is classical DCs in draining lymph node. The experiment in a line: Ex vivo cross-priming by DCs sorted from draining lymph node of treated mice. Format: in vivo, mouse. The settings on record: four DC subtypes from SAA treated B16-OVA bearing mice, day 12. How it is done:
For in vitro cross-presentation study, mature FLT3L-DCs were harvested on day 9 and purified by EasySep Mouse CD11 c Positive Selection Kit II, then treated with 10 μM SAA or DMSO in IMDM medium (contain 10% bovine and 100 ng/mL FLT3L) for 10 h. […] Then antigen-obtained DCs were purified and co-cultured with naïve T cells from OT-1 mice at a ratio of 1:10 for 96 h. The co-culture medium was 1640 RPMI contains 10% fetal bovine with or without 1 μg/mL OT-1 (OVA 257-264) peptide. For ex vivo DCs cross-presentation assay, four types of DCs (migration CD11b DC, migration CD103′ DC, resident CD11b DC and resident CD8^+ DC) were sorted in draining lymph node from SAA treated B16-OVA bearing mice at day 12. These DCs were co-cultured with OT-1 naïve T cells in the ratio of 1:10 for 96 hours with or without OT-1 peptide. Supernatant IFN-γ production was detected via CBA assay.
Further, four types of classical DCs (resident CD11b^+, resident CD8α^+, migratory CD11b^+ and migratory CD103^+) in draining lymph node were sorted from SAA treated B16-OVA bearing wild-type mice on day 12. These DCs were co-cultured with OT-I T cells for 72 hours. Then, IFN-γ production was assessed by IFN-γ cytometric bead array.

For a further test, the system named is B16-OVA tumor cells. Kind of test: B16-OVA tumor cell proliferation in vitro. The settings on record: 5×10^4 B16-OVA cells, various doses, 12 hours. The class given is cell-based, mouse. How it is done:
In a further experiment, tumor cells were treated with SAA in vitro. Briefly, 5×10^4 B16-OVA tumor cells were treated with SAA of various doses respectively in a 96-well plate. Cell number was counted 12 hours after said SAA treatment.

The target of a further test is T1, YTHDF1 mutant F382A (Homo sapiens, UniProt Q9BYJ9, F382A).
T1 construct: GST (N, cleaved yes); made in house; host or cells: E. coli BL21 (DE3)
Kind of test: FP assay with YTHDF1 mutant F382A. The class given is binding. As to the method: The protein YTHDF1 (361-559) (SEQ ID NO: 2) and its mutants (SEQ ID NOs: 4-13) were cloned into pGEx-6P-1 vector (obtained from YouBio Co, Ltd, Catalog NO: VT1258), and the His-YTHDF1 (361-559) (SEQ ID NO: 3) used in AlphaScreen Assay was cloned into modified pET28a vector (obtained from YouBio Co, Ltd, Catalog NO: VT1207). The vectors were transformed into E. coli BL21 (DE3) cells and cultured at 37° C. When OD value reached 0.6˜0.8, 1 mM Isopropyl-β-D-thiogalactopyranoside was added to overexpress the protein at 16° C. overnight. […] Then, the proteins were further purified via cation exchange (HiTrap SP, GE Healthcare) and finally through a Superdex 75 10/300 column (GE Healthcare). At last, the purified YTHDF1(361-559) and the mutants were kept in buffer which contains 20 mM Hepes (pH 7.4) and 200 mM NaCl. For His-YTHDF1 (361-559), the protein was purified via Ni-NTA chromatography (HisTrap FF, GE Healthcare), followed by cation exchange and Superdex 75 10/300 column in sequence. And the obtained protein was kept in the buffer with the same ingredients.
All of the YTHDF1 (361-559), the 5′-FAM labeled m^6A-containing mRNA (5′-FAM-[…] (m^6A) CUGUG-3′, SEQ ID NO: 14) and the candidate compounds were diluted with assay buffer (20 mM Hepes (pH 7.4), 50 mM NaCl, 0.01% (v/v) tween 20, 5% (v/v) glycerol). […] At last, the mixtures were measured by Envision Readers (PerkinElmer). […]

In a further test the target is T2, YTHDF1 (361-559) (Homo sapiens, UniProt Q9BYJ9).
T2 construct: GST (N, cleaved yes); made in house; host or cells: E. coli BL21 (DE3)
T2 sequence (Q9BYJ9 with tags, fused parts or gaps): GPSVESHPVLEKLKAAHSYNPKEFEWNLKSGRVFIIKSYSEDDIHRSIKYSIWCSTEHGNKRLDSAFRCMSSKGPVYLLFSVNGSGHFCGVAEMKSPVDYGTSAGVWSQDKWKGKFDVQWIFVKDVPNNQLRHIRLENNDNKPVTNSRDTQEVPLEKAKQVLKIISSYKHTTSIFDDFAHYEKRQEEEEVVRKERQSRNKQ
Kind of test: Hydrogen deuterium exchange mass spectrometry (HDX MS). The class given is binding. The settings on record: HDX 10 s to 14400 s; many peptides HDX variation over 5%. How it is done: YTHDF1 (361-559) was incubated with the compound (e.g., SAA) at 4° C. overnight before the measurement. In hydrogen deuterium exchange mass spectrometry (HDX MS), the hydrogen atoms of YTHDF1 (361-559)-apo and YTHDF1 (361-559)-SAA were exchanged with deuterium for 0 s, 10 s, 30 s, 60 s, 1200 s, 3600 s and 14400 s respectively at 10° C. in buffer containing 20 mM Hepes (pH 7.4), 200 mM NaCl and D2O. And the reactions were stopped at 0.5° C. using buffer containing 4 M guanidine hydrochloride, 0.5 M TCEP and 100 mM citric acid (pH 2.3). After deuterium label reaction, the samples were digested at 4° C. by pepsin immobilized on the column in order to obtain peptides of the samples. These peptides were next separated by HPLC and analyzed via mass spectrometry, respectively. HDX MS data was analyzed in HDExaminer software (v2.4.1) and +5% were set as the threshold to pick out those peptides with significant change.
Then, hydrogen deuterium exchange mass spectrometry (HDX MS) experiment was conducted, to determine the binding sites of SAA on YTHDF1.

T1 sequence (Q9BYJ9 with tags, fused parts or gaps F382A): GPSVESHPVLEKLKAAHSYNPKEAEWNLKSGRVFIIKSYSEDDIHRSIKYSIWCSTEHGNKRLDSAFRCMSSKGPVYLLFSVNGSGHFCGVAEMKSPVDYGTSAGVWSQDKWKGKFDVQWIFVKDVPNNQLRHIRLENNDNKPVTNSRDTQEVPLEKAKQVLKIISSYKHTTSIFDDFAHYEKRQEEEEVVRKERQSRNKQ

Regarding `O=C(/C=C/c1ccc(O)c(O)c1/C=C/c1ccc(O)c(O)c1)O[C@H](Cc1ccc(O)c(O)c1)C(=O)O` [SAA, Salvianolic Acid A], in test [1], the “cross-priming of T cells (IFN-γ production)” value is “better cross-priming of T cells than DMSO treated group”. Moreover, in the test on B16-OVA tumor cells, the “proliferation of tumor cells (cell number)” value is on record as “not affected”. Moreover, the “inhibitory activity against mutant binding to m6A versus wildtype” value on YTHDF1 mutant F382A is reported as “significantly weaker than that against wildtype YTHDF1”. On YTHDF1 (361-559), the “conformational change of YTHDF1 on binding (deuterium uptake)” value is listed as “significant conformational changes”.
